From publication PMC9712658, “Structural analysis of the 2-oxoglutarate binding site of the circadian rhythm linked oxygenase JMJD5” (Scientific Reports, 2022)

Molecular target: T1, full-length JMJD5 (aa 1–416, JMJD5^FL) (Homo sapiens, UniProt Q8N371)
T1 construct: 10 µM full-length JMJD5 (aa 1–416); His6 (N); made in house; host or cells: Escherichia coli Rosetta2(DE3)-pLysS
Test: JMJD5 inhibition assay by MALDI-TOF MS (hydroxylation of RpS6_129-144 peptide)
Assay type: biochemical
Conditions: 10 µM JMJD5^FL, 100 µM Fe(II), 400 µM ascorbate, 50 µM 2OG, 100 µM RpS6_129-144, inhibitor 0–10 mM; mean (n = 3) ± SD
Source text: To explore inhibition involving orthosteric 2OG ligand binding in the JMJD5 2OG pocket, we initially screened a focused set of compounds comprising relatively close 2OG mimetics, tricarboxylic acid (TCA) cycle intermediates, hypoxia inducible factor (HIF) prolyl hydroxylase (PHD) inhibitors, and JmjC histone demethylase (KDM) inhibitors (Supplementary Fig. S1).
[…] Hydroxylation of RpS6 peptide was monitored by MALDI-TOF MS and intensity of hydroxylated peak was quantified to determine the extent of inhibition caused by inhibitor.

T1 sequence (Q8N371 whole entry, the tested form may be a part): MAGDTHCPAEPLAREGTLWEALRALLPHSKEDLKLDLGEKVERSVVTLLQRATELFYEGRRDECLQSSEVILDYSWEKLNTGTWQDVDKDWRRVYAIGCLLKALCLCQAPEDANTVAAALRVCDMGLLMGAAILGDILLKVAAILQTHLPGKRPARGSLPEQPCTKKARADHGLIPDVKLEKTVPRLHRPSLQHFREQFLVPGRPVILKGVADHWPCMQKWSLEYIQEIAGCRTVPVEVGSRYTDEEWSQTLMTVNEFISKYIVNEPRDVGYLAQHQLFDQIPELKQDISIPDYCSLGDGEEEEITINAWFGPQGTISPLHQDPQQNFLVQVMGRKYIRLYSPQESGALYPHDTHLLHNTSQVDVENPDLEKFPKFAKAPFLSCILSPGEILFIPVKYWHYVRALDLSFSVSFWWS

IC50 [µM] | SMILES
66 ± 1.5 | O=C(O)c1ccnc(-c2cc(C(=O)O)ccn2)c1 [2.4-BPDCA, bipyridinyl-2,4-dicarboxylate]
288 ± 1.5 | O=C(O)CNC(=O)c1ncc(-c2cccc(F)c2)cc1O [AKB-6899]
820 ± 1.8 | O=C(O)CC(O)(CC(=O)O)C(=O)O [Citrate]
1268 ± 1.5 | O=C(O)CC[C@@H](O)C(=O)O [D-2HG, D-2-hydroxyglutarate]
239 ± 1.9 | Cc1nc(C(=O)NCC(=O)O)c(O)c2ccc(Oc3ccccc3)cc12 [FG4592]
96 ± 1.7 | O=C(O)c1ccc(O)c2ncccc12 [IOX1, 5-carboxy-8-hydroxyquinoline]
621 ± 1.4 | CCN(CCN(C)C)C(=O)CNCc1cc(C(=O)O)ccn1 [KDM5-C49]
340 ± 1.3 | O=C(O)CC[C@H](O)C(=O)O [L-2HG, L-2-hydroxyglutarate]
15 ± 1.4 | CN(C)CCCNC(=O)c1ccc(-c2cc(O)c3ncccc3c2)cc1 [ML-324]
1604 ± 1.4 | O=C(O)CC(O)C(=O)O (stereo not shown) [Malate]
6 ± 1.4 | O=C(O)CNC(=O)C(=O)O [NOG, N-oxalylglycine]
85 ± 1.4 | O=C(O)CC(=O)C(=O)O [Oxaloacetate]
500 ± 1.6 | CC(=O)C(=O)O [Pyruvate]
840 ± 1.4 | O=C(O)CCC(=O)O [Succinate]

SMILES | IC50 [µM]
O=C(O)CCNc1cc(N2CCc3ccccc3CC2)nc(-c2ccccn2)n1 [GSK-J1] | 67 ± 1.5

Same assay, conditions: screen at 0.1, 1 and 10 mM and/or IC50 determination

SMILES | JMJD5 inhibition (in words)
CN(C)NC(=O)CCC(=O)O [daminozide] | Neither daminozide (a plant growth regulator that inhibits the JmjC KDM 2/7 oxygenases[56]), nor its structural derivative 7 appear to inhibit JMJD5
